Measured values reported in the NIST ThermoML archive (doi:10.1016/j.fluid.2014.04.028).
Numbers after ± are expanded uncertainties.

How the values were obtained:
[1] = molar heat capacity at constant pressure; settings: 101.33 kPa, Small sample (50 mg) DSC
[2] = Molar enthalpy of transition or fusion; settings: Crystal; DSC
[3] = Crystal; DTA

Cc1nc2n(c(=O)c1CCN1CCC(c3noc4cc(F)ccc34)CC1)CCCC2 [risperidone]
[1]
Settings | molar heat capacity at constant pressure [J/K/mol]
270.1 K, Crystal | 471 ± 12
275 K, Crystal | 476 ± 13
280.1 K, Crystal | 480 ± 12
284.9 K, Crystal | 483 ± 12
290.1 K, Crystal | 489 ± 12
294.9 K, Crystal | 495 ± 12
300.1 K, Crystal | 502 ± 12
304.9 K, Crystal | 509 ± 12
310.1 K, Crystal | 516 ± 12
314.9 K, Crystal | 523 ± 12
320.1 K, Crystal | 530 ± 12
324.9 K, Crystal | 537 ± 12
330.1 K, Crystal | 544 ± 12
334.9 K, Crystal | 551 ± 13
340 K, Crystal | 558 ± 13
345.1 K, Crystal | 564 ± 13
350 K, Crystal | 571 ± 13
355.1 K, Crystal | 578 ± 13
359.9 K, Crystal | 583 ± 13
365 K, Crystal | 590 ± 13
370.1 K, Crystal | 597 ± 13
375 K, Crystal | 602 ± 13
380.1 K, Crystal | 609 ± 13
384.9 K, Crystal | 615 ± 14
390 K, Crystal | 621 ± 14
394.9 K, Crystal | 627 ± 14
400 K, Crystal | 634 ± 14
405.1 K, Crystal | 641 ± 14
409.9 K, Crystal | 647 ± 14
430.1 K, Liquid | 839 ± 14
434.9 K, Liquid | 842 ± 14
440 K, Liquid | 845 ± 14
445.1 K, Liquid | 850 ± 14
449.9 K, Liquid | 854 ± 14
453 K, Liquid | 856 ± 14

Settings | Molar enthalpy of transition or fusion [kcal/mol] | Normal melting temperature [°C]
[2] | 10.5 ± 0.222 | –
[3] | – | 169.23 ± 0.63
